Laboratory results reported in patent publication US8617563B2, “Antichlamydial agents” (Duke University, priority 2011, dated 2013).

Tests used:
CPAF [1] = molecular target: T1, CPAF (Chlamydia trachomatis serovar D, UniProt O84866); assay type: biochemical, C. trachomatis; parameters: 6xHis; made in house; host or cells: E. coli (pET30b); conditions: GST-tagged chlamydial substrates, 37° C., 20 min
Procedure: FIG. 4 depicts (A) Recombinant Chlamydia ORFs were tested for sensitivity to host and bacterial derived proteases. […] Purified his-tagged CPAF was incubated with GST-tagged chlamydial substrates at 37° C. for 20 min with increasing amounts of lactacystin. Cleavage products were run on an SDS PAGE gel and visualized with Coomassie blue staining. (C) Schematic summary of CPAF targets. […] Membranes from Chlamydia-infected HeLa cells were harvested and purified at 0, 24, 36 and 48 hours post-infection, and the abundance of the chlamydial proteins Ct005, IncC and IncD were monitored with specific antibodies. Na/K ATPase and IncG served as host and bacterial-loading controls, respectively.
(§1) Cytosols from Chlamydia-infected HeLa cells (40 hrs) or recombinant his-tagged CPAF were pre-treated with rabbit polyclonal anti-CPAF or anti-IncA antisera, and incubated with GST-tagged Chlamydia proteins for 20 min at 37° C. […] Three example proteins shown include a type-III secretion (T3S) core component (CdsQ) a T3S chaperone (Mcsc) and a T3S needle component (Ct584). Processing of recombinant proteins in A-B were monitored by immunoblot analysis with specific antibodies. (C) Protease inhibitor profile of recombinant CPAF. Example shown for the chlamydial substrate GST-IncC. Degradation products were visualized by SDS-PAGE followed by staining with Coomassie blue. […]
Uninfected and HeLa cells pre-infected with L2 for 30 hrs were treated with inhibitory peptides and infected with EBs for 10 min Tarp translocation was indirectly visualized with an anti-phosphotyrosine antibody (A) and quantified by counting 50 separate cells (B). The stability of newly translocated Tarp was assessed by infecting cells as in (A) but with S^35-labeled EBs, followed by sequential immunoprecipitation of Tarp and MOMP and Phosphoimager analysis of precipitated material (C (I-IV)). […] IC50 values were determined by assessing CPAF cleavage of an Abz-tagged CPAF substrate (SEQ ID NO:9) by HPLC. […] Extracellular bacteria were determined. […] The number of internalized EBs was quantified per cell (H). […]
Target sequence in this assay (O84866 1-234, added parts left off): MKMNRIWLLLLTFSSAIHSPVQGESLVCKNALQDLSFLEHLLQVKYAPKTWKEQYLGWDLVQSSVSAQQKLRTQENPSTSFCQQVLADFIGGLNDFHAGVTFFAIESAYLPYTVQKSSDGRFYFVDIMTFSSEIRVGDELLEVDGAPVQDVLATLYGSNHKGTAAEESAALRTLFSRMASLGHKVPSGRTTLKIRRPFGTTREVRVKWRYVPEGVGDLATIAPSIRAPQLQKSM
Target sequence in this assay (O84866 276-601): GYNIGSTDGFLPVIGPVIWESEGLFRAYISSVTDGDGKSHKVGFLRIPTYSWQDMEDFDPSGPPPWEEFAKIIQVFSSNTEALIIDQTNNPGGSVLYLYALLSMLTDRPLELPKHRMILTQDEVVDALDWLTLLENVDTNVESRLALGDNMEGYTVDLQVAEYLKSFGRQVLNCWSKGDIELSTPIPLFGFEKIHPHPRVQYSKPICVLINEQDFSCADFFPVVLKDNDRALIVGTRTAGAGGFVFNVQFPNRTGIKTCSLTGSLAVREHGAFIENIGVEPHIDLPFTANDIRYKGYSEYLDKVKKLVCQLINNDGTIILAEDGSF

CPAF [2] = molecular target: T1, CPAF; assay: HPLC-based CPAF inhibition assay with Abz-tagged model substrate (SEQ ID NO:9); assay type: biochemical, C. trachomatis; parameters: 6xHis; made in house; host or cells: E. coli BL21 (DE3), plasmid pET30b-CPAF; conditions: CPAF 62.5 nM, substrate SEQ ID NO:9 0.5 mM, inhibitor 0-240 μM
Procedure: FIG. 1 depicts the results of HPLC-based CPAF inhibition assays using a model CPAF substrate (SEQ ID NO:9) to compare inhibition of CPAF protease activity by SEQ ID NO:7, SEQ ID NO:2, and lactacystin. HPLC-based assays were performed in a final volume of 100 μL containing assay buffer, CPAF (62.5 nM), substrate 1 (0.5 mM), and varying concentrations of inhibitor (0-240 μM).
HPLC-based assays comprised an Abz-tagged model CPAF substrate (SEQ ID NO:9) and were performed in a final volume of 100 μL containing 150 mM NaCl, 50 mM Tris pH 7.50, purified CPAF (62.5 nM), fluorescent-tagged model CPAF substrate (0.5 mM), and varying concentrations of each candidate compound (0-240 μM). IC50 values were determined by pre-incubating CPAF with varying concentrations of candidate compound for 5 min at room temperature prior to initiation of the reaction via the addition of model CPAF substrate. Reactions were allowed to proceed for 90 seconds at 25° C., followed by removal of 80 μL aliquots and quenching by the addition of 1.2 M HCl (40 μL). Data were converted to percent activity relative to a control reaction without candidate compound and fit to the following equation using GraFit v6.0, where [I] is the concentration of candidate compound and s is a slope factor: […]
Target sequence in this assay (O84866 276-601): as above
Target sequence in this assay (O84866 1-234, added parts left off): as the sequence (O84866 1-234, added parts left off) above

CPAF [3] = molecular target: T1, CPAF; assay type: biochemical, C. trachomatis; parameters: endogenous in cells; host or cells: HeLa cells infected with C. trachomatis LGV-L2 434/Bu (the bacteria make the protein and secrete it into the host cytosol); conditions: cytosol pre-treated with inhibitor or antibody
Procedure: as §1, with “FIG. 5 depicts (A) that Polyclonal anti-CPAF antisera blocks proteolysis of chlamydial substrates. Cytosols” for “Cytosols”, “GST-IncC.” for “GST-IncC. Degradation products were visualized by SDS-PAGE followed by staining with Coomassie blue.”
Target sequence in this assay (O84866 276-601): as the sequence (O84866 276-601) above
Target sequence in this assay (O84866 24-234): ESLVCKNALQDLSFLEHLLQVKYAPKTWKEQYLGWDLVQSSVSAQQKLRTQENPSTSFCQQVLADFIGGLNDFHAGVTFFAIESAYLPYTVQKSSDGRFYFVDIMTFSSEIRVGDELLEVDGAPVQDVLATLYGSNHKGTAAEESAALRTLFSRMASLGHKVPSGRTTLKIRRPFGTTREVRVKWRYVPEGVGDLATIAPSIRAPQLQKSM
Recombinant CPAF was generated using pET30b (Huang et al., Cell Host & Microbe, 4:529-542 (2008). For in vitro cleavage assays, Chlamydia ORFs were expressed in either yeast or E. coli. Crude recombinant proteins were incubated for 30 minutes with cytosol from uninfected or LGV-L2 infected (40 h) HeLa cells, and processing was assessed by SDS-PAGE and immunoblotting using standard techniques. Approximately 8% of the expressed chlamydial proteins were sensitive to degradation after incubation with cytosol derived from infected cells (FIG. 3A). Processing ranged from the generation of distinct cleavage fragments to complete degradation (FIG. 3B). […]

CPAF [4] = molecular target: T1, CPAF; parameters: endogenous in cells; host or cells: HeLa cells infected with C. trachomatis LGV-L2 434/Bu (the bacteria make the protein and secrete it into the host cytosol); conditions: C. trachomatis LGV-L2 434-infected HeLa cells; Kumar et al. 2008; cited from earlier work
Target sequence in this assay (O84866 276-601): as the sequence (O84866 276-601) above
Target sequence in this assay (O84866 24-234): as the sequence (O84866 24-234) above

## CC(=O)N[C@@H](CSC(=O)[C@]1([C@@H](O)C(C)C)NC(=O)[C@H](C)[C@@H]1O)C(=O)O [lactacystin]
CPAF [1]
  Inhibition of proteolysis by recombinant CPAF: inhibited
CPAF [2]
  IC50: 10.2 ± 2.3 µM
CPAF [3]
  Protection of chlamydial proteins from degradation by cytosols of Chlamydia-infected cells: protected from degradation
CPAF [4]
  Vimentin state in infected HeLa cells treated with lactacystin: fiber oligomerization of vimentin
